Calls of active or inactive are those of the source. The rule behind the calls is not given here.

The values that follow come from ChEMBL document CHEMBL3414441, “Development of multifunctional, heterodimeric isoindoline-1,3-dione derivatives as cholinesterase and β-amyloid aggregation inhibitors with neuroprotective properties” (Eur J Med Chem, 2015).

Series [1] concerns the target Acetylcholinesterase (Electrophorus electricus, UniProt O42275).
Description: Inhibition of Electrophorus electricus AChE after 5 mins by Ellman's method
Another series deals with Cholinesterase (Equus caballus, UniProt P81908).
Chain of Cholinesterase (P81908 whole entry): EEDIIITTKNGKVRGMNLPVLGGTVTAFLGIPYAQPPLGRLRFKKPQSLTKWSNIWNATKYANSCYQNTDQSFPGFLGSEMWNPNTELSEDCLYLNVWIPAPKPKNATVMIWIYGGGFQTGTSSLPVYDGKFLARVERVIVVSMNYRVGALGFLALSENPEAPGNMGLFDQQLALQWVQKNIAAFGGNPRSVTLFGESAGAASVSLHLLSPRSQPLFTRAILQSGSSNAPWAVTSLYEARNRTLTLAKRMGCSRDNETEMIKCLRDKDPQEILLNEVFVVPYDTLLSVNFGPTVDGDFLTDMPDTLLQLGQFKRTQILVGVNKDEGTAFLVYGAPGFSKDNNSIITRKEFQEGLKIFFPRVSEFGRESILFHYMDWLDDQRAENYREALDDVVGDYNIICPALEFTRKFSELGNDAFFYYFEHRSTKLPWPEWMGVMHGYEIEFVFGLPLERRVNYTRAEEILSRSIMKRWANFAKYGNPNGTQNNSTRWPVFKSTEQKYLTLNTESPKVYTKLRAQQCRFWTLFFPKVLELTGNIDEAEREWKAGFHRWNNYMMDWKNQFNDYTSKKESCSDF
Series [2] has as its target T1, Acetylcholinesterase (Homo sapiens, UniProt P22303).
Description: Inhibition of human recombinant AChE after 5 mins by Ellman's method
In series [3] the target is T1, Acetylcholinesterase. Briefly: Inhibition of human recombinant AChE at 10 uM after 5 mins by Ellman's method. (In Ellman's method for cholinesterases, released thiocholine reacts with DTNB.)
The target of series [4] is Cholinesterase (Equus caballus) (UniProt P81908). Briefly: Inhibition of equine serum BuChE at 10 uM after 5 mins by Ellman's method.
Chain of Cholinesterase (Equus caballus) (P81908 whole entry): as above
Series [5] can be described thus: Cytotoxicity against human SH-SY5Y cells assessed as cell viability at 0.1 to 10 uM after 48 hrs by MTS assay. It is filed as cell-based. Background: Tetrazolium assays rely on reduction of a dye to a coloured formazan, in cell work by metabolically active cells.
Series [6] concerns the target Amyloid-beta precursor protein (Homo sapiens) (UniProt P05067). Briefly: Neuroprotective activity in human SH-SY5Y cells assessed as inhibition amyloid beta (1 to 42)-induced cytotoxicity at 10 uM after 48 hrs. The class given is functional, cell-based.
The target is the same in series [7]. Briefly: Neuroprotective activity in human SH-SY5Y cells assessed as inhibition amyloid beta (1 to 42)-induced cytotoxicity at 1 uM after 48 hrs. The class given is functional, cell-based. Set-up: scale not given: the % may be the effect or the level left.
For series [8] the target is unchanged. Briefly: Neuroprotective activity in human SH-SY5Y cells assessed as inhibition amyloid beta (1 to 42)-induced cytotoxicity at 3 uM after 48 hrs. The class given is functional, cell-based. On the set-up: scale not given: the % may be the effect or the level left.
Series [9] has as its target Acetylcholinesterase (Electrophorus electricus) (UniProt O42275). Briefly: Non-competitive inhibition of Electrophorus electricus AChE after 5 mins by Lineweaver-Burk plot analysis.
Series [10] shares this target. Briefly: Inhibition of Electrophorus electricus AChE at 10 uM after 5 mins by Ellman's method.
Series [11] deals with Amyloid-beta precursor protein (Homo sapiens) (UniProt P05067). Briefly: Inhibition of human recombinant amyloid beta (1 to 42) self-induced aggregation after 24 hrs by thioflavin-T based fluorometric assay.
Chain of Amyloid-beta precursor protein (Homo sapiens) (P05067 whole entry): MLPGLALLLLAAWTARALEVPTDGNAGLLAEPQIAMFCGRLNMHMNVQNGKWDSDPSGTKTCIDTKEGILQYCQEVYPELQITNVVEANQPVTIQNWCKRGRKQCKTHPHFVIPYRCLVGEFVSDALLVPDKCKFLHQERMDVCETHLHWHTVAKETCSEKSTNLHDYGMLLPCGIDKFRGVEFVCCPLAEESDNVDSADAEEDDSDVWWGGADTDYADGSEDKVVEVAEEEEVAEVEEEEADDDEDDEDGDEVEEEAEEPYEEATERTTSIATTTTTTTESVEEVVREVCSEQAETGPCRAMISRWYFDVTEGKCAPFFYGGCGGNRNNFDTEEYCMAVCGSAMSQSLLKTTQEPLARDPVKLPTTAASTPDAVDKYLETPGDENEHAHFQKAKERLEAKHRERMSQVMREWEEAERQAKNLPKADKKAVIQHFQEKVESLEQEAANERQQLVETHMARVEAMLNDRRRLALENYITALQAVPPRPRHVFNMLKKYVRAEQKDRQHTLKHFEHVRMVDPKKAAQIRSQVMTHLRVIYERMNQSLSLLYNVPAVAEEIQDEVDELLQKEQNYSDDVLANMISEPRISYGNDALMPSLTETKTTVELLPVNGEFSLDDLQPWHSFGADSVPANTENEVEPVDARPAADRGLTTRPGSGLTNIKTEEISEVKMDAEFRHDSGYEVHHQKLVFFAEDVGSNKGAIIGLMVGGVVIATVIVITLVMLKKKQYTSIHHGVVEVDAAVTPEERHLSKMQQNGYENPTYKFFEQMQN

T1 sequence (P22303 whole entry): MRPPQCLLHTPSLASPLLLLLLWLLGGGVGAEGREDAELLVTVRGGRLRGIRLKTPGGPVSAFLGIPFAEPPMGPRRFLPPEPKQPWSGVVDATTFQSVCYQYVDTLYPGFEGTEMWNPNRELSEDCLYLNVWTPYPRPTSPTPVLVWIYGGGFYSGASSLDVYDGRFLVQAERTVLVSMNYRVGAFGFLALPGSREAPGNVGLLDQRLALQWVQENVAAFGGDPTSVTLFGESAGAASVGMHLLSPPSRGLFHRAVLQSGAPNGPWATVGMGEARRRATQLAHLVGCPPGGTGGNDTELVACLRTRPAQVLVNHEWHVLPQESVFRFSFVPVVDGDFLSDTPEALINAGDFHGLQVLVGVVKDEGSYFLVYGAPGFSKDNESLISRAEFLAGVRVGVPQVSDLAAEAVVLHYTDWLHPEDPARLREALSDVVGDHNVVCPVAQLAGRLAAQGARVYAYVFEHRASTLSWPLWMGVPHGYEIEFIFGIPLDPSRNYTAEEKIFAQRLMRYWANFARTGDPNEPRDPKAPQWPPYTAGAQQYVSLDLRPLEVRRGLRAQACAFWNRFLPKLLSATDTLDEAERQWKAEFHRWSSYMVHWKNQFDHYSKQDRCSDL
Chain of Acetylcholinesterase (Electrophorus electricus, UniProt O42275) (O42275 whole entry): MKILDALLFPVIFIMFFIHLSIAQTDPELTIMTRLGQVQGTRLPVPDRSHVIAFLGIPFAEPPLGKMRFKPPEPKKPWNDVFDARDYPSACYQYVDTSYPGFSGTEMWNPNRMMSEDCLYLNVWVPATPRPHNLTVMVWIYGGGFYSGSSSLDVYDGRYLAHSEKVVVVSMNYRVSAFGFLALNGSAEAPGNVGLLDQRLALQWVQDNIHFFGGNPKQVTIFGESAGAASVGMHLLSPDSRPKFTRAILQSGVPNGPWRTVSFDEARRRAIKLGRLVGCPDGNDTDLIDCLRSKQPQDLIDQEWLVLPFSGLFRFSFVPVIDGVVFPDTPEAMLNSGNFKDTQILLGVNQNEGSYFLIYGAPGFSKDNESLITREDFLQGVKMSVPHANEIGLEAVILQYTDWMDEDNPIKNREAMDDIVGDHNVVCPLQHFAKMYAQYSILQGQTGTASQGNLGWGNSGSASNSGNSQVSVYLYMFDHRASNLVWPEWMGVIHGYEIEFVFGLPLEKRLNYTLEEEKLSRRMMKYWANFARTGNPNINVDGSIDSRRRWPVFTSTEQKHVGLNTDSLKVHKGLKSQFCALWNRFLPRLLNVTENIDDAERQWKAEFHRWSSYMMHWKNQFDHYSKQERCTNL
Chain of Acetylcholinesterase (Electrophorus electricus) (O42275 24-633 limits assumed): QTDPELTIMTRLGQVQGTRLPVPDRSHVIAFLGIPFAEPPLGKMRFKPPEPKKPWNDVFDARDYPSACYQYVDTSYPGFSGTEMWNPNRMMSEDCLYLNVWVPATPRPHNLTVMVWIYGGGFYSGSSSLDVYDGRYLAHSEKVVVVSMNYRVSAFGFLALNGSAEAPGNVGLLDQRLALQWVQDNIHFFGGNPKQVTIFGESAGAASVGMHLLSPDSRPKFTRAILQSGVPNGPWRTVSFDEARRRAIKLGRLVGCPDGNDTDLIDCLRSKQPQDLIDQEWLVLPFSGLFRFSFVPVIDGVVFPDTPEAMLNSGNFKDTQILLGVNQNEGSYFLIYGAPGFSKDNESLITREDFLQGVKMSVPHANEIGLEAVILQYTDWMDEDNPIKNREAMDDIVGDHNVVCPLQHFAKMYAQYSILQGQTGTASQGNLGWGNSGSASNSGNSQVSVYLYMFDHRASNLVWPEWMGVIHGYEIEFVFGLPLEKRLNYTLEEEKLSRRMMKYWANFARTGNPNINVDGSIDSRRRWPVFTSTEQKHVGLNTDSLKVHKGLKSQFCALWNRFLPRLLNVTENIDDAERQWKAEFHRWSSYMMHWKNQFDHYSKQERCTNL

In the case of `O=C1c2ccccc2C(=O)N1CCCCCCCNCc1ccccc1`, the figures for the half-inhibitory concentration (IC50) at Acetylcholinesterase [1], against Cholinesterase and against Acetylcholinesterase [2] were 0.249 µM, 1.71 µM and 0.303 µM, respectively.

For the molecule `O=C1c2ccccc2C(=O)N1CCCCNCc1cccc(Cl)c1`, the inhibition (on Acetylcholinesterase [3]; in [4]) was below 50% each time. Moreover, 1.97 µM corresponded to half-maximal inhibition on Acetylcholinesterase [1] (IC50).

Consider `O=C1c2ccccc2C(=O)N1CCCCCCNCc1ccc(F)cc1F`, for which the Activity result in series [5] is “Non-toxic”; in series [7] it was 80.3%; in series [8], 66.5%. For the same molecule, the result in series [6] was inactive. Further, the IC50 (in general, the concentration at which inhibition is half-maximal) is 0.229 µM against Acetylcholinesterase [1], 8.09 µM at Cholinesterase and 1.6 µM on Acetylcholinesterase [2].

Take `O=C1c2ccccc2C(=O)N1CCCCNCc1ccc(F)cc1F`: the inhibition (at Acetylcholinesterase [3]; in [4]) was below 50% each time. Besides, the IC50 against Acetylcholinesterase [1] came out at 8.18 µM.

Consider `O=C1c2ccccc2C(=O)N1CCCCCCCNCc1ccc(F)cc1`, for which the 50% inhibitory concentration (IC50) against Acetylcholinesterase [1] is 0.361 µM; at Cholinesterase, 1.58 µM; on Acetylcholinesterase [2] it was 0.437 µM.

Take `O=C1c2ccccc2C(=O)N1CCCCCCNCc1ccc(F)cc1`: the IC50 came to 0.694 µM on Acetylcholinesterase [1], 9.2 µM against Cholinesterase and 3.17 µM on Acetylcholinesterase [2].

On to `O=C1c2ccccc2C(=O)N1CCCCCNCc1ccc(F)cc1F`, for which the inhibition (in general, the relative decrease from the control value, in per cent) in series [4] is below 50%. For the same molecule, the half-inhibitory concentration (IC50) against Acetylcholinesterase [1] was 0.1 µM; against Acetylcholinesterase [2], 0.258 µM. Moreover, in [9], the inhibition result is “Active”.

Consider `O=C1c2ccccc2C(=O)N1CCCCNCc1ccc(F)cc1`, for which the inhibition (on Acetylcholinesterase [3]; in series [4]; in series [10]) was below 50% each time.

Consider `O=C1c2ccccc2C(=O)N1CCCCCCCNCc1ccccc1F`, for which the half-maximal inhibitory concentration (IC50) worked out at 0.119 µM against Acetylcholinesterase [1], 2.38 µM on Cholinesterase and 0.329 µM against Acetylcholinesterase [2].

Regarding `O=C1c2ccccc2C(=O)N1CCCCNCc1ccccc1F`, the inhibition (on Acetylcholinesterase [3]; in [4]) was below 50% throughout. The same molecule displayed an IC50 against Acetylcholinesterase [1] of 2.03 µM.

As to `O=C1c2ccccc2C(=O)N1CCCCCCCCNCc1ccccc1F`, the half-maximal inhibitory concentration (IC50) on Acetylcholinesterase [1] is 0.438 µM; against Cholinesterase, 2.09 µM; against Acetylcholinesterase [2] it was 0.545 µM.

For `O=C1c2ccccc2C(=O)N1CCCCCNCc1ccc(F)cc1`, the Activity entry is “Non-toxic” in [5], 84.5% in series [7] and 76.2% in [8]. Further, the result in [6] was inactive. The figures for the inhibition in [4] and in series [11] were below 50% and “Dose-dependent effect”, respectively. The IC50 stood at 0.219 µM at Acetylcholinesterase [1] and 0.268 µM at Acetylcholinesterase [2].

Take `O=C1c2ccccc2C(=O)N1CCCCCCCNCc1ccc(F)cc1F`: the concentration for half-maximal inhibition (IC50) was 0.171 µM on Acetylcholinesterase [1], 1.87 µM against Cholinesterase and 0.381 µM against Acetylcholinesterase [2].

The molecule `O=C1c2ccccc2C(=O)N1CCCCCCNCc1ccccc1F` came in with an inhibition in series [4] below 50%. Moreover, the half-inhibitory concentration (IC50) on Acetylcholinesterase [1] was 0.113 µM; at Acetylcholinesterase [2], 0.941 µM.

In series [4], `O=C1c2ccccc2C(=O)N1CCCCCCNCc1ccccc1` registered an inhibition below 50%. Further, the concentration for half-maximal inhibition (IC50) stood at 0.216 µM on Acetylcholinesterase [1] and 2.1 µM at Acetylcholinesterase [2].

Molecule `O=C1c2ccccc2C(=O)N1CCCCCNCc1cccc(Cl)c1` displayed an inhibition in series [4] below 50%. For the same molecule, the figures for the IC50 against Acetylcholinesterase [1] and against Acetylcholinesterase [2] were 0.034 µM and 0.16 µM, respectively. In series [9], the inhibition result is “Active”.

Take `O=C1c2ccccc2C(=O)N1CCCCCCNCc1cccc(Cl)c1`: the IC50 at Acetylcholinesterase [1] was 0.18 µM; against Cholinesterase, 4.6 µM; against Acetylcholinesterase [2], 2.01 µM.

As for `O=C1c2ccccc2C(=O)N1CCCCCCCNCc1cccc(Cl)c1`, the figures for the IC50 at Acetylcholinesterase [1], against Cholinesterase and against Acetylcholinesterase [2] were 0.502 µM, 2.63 µM and 0.651 µM, respectively.

For `O=C1c2ccccc2C(=O)N1CCCCCCCCNCc1ccccc1`, the IC50 was determined as 0.773 µM on Acetylcholinesterase [1], 1.23 µM at Cholinesterase and 0.496 µM against Acetylcholinesterase [2]. For the same molecule, the inhibition result in series [9] was “Active”.

On to `O=C1c2ccccc2C(=O)N1CCCCNCc1ccccc1`, for which the inhibition (at Acetylcholinesterase [3]; in series [4]) was below 50% each time. The same molecule yielded an IC50 against Acetylcholinesterase [1] of 5.28 µM.

As for `O=C1c2ccccc2C(=O)N1CCCCCNCc1ccccc1`, the inhibition in [4] is below 50%. Besides, the figures for the IC50 against Acetylcholinesterase [1] and against Acetylcholinesterase [2] were 0.078 µM and 0.202 µM, respectively.

For the molecule `O=C1c2ccccc2C(=O)N1CCCCCCCCNCc1ccc(F)cc1`, the inhibition at Acetylcholinesterase [3] was below 50%. In addition, the IC50 came out at 2.23 µM against Acetylcholinesterase [1] and 1.69 µM on Cholinesterase.

`O=C1c2ccccc2C(=O)N1CCCCCNCc1ccccc1F` gave an inhibition in [4] below 50%. For the same molecule, the values for the 50% inhibitory concentration (IC50) at Acetylcholinesterase [1] and against Acetylcholinesterase [2] were 0.041 µM and 0.168 µM, respectively.

In the case of `O=C1c2ccccc2C(=O)N1CCCCCCCCNCc1ccc(F)cc1F`, the 50% inhibitory concentration (IC50) on Acetylcholinesterase [1] is 0.601 µM; at Cholinesterase it was 1.06 µM; against Acetylcholinesterase [2], 0.578 µM.

Regarding `O=C1c2ccccc2C(=O)N1CCCCCCCCNCc1cccc(Cl)c1`, the half-maximal inhibitory concentration (IC50) on Acetylcholinesterase [1] is 0.729 µM; against Cholinesterase it was 1.48 µM; on Acetylcholinesterase [2] it was 0.686 µM.
